# “And” between values parts separate entries of the source, which are not always exact repeats. Equal values may be shown once. The source made the active and inactive calls. No cut-off for these calls is given here.
# What was measured:
# [1] = Cytotoxicity against human Hep3B cells after 48 hrs by SRB assay; assay type: functional, cell-based, Hep 3B2
# Mus musculus [2] = experiment: Toxicity in human Hep3B cells xenografted athymic nude mouse assessed as induction of necrotic damage in liver at 10 mg/kg/day, ip for 4 consecutive days; assay type: organism-based, Hep 3B2; design: route intraperitoneal; conditions: in vivo
# Hep 3B2 = experiment: Antitumor activity against human Hep3B cells xenografted in athymic nude mouse assessed as retardation of tumor growth at 10 mg/kg/day, ip for 4 consecutive days; assay type: functional, organism-based
# Mus musculus [3] = experiment: Toxicity in human Hep3B cells xenografted athymic nude mouse assessed as induction of necrotic damage in kidney at 10 mg/kg/day, ip for 4 consecutive days; assay type: organism-based, Hep 3B2; design: route intraperitoneal; conditions: in vivo
# [4] = Homo sapiens, Hep3B, 48 h, read-out: IC50
Compound,"IC50 [1, 4] [µg/mL]",Activity (Mus musculus [2]),inhibition (Hep 3B2),Activity (Mus musculus [3]),IC50 ([1]; hep 3b2)
c1ccc(P(c2ccccc2)c2ccc3ccccc3c2-c2c(P(c3ccccc3)c3ccccc3)ccc3ccccc23)cc1,> 50,,,,
O=P(c1ccccc1)(c1ccccc1)c1ccc2ccccc2c1-c1c(P(=O)(c2ccccc2)c2ccccc2)ccc2ccccc12,14,Non-toxic,Active,Non-toxic,12 µg/mL
COc1cc(P(=O)(c2ccccc2)c2ccccc2)c(-c2c(P(=O)(c3ccccc3)c3ccccc3)cc(OC)nc2OC)c(OC)n1,47,,,,43 µg/mL and 42 µg/mL
COc1cc(P(c2ccccc2)c2ccccc2)c(-c2c(P(c3ccccc3)c3ccccc3)cc(OC)nc2OC)c(OC)n1,> 50,,,,

# From ChEMBL document CHEMBL1275318, “The preparation of bi-functional organophosphine oxides as potential antitumor agents” (Eur J Med Chem, 2010)
